Measured values published in US7902361B2, “Pyrimidin-4-yl-3, 4-thione compounds and their use in therapy” (Cyclacel Limited, priority 2003, dated 2011).
pIC50, pKi: −log10 of the molar value.

Assays:
Assay type in all cases: biochemical
GSK3β = target: T1, GSK3β (Homo sapiens, UniProt P49841); assay: GSK3β in vitro kinase assay; conditions: recombinant human GSK3β, 100 μM ATP
T1 construct: purchased New England Biolabs
Description: Both isoforms of GSK3 (α and β) are involved in the regulation of glycogen synthase activity—key enzyme in the glycogen metabolism.
A 10-point titration was set up to determine the IC50 values of selected example compounds against GSK3β. Assays were performed using 96-well microtiter plates with a final volume of 25 μL per well. Each assay contained 1.5 units of GSK3β(New England Biolabs), 200 μM CREB phosphopeptide ([…]pSYR, Alta Biosciences), 20 mM Tris HCl pH7.5, 5 mM DTT, 15 mM MgCl2 supplemented with 100 μM ATP and 0.5 μCi of [γ-^32P] ATP plus or minus inhibitor in 2% DMSO. Assays were carried out for 30 minutes at 30° C. before stopping the reaction by the addition of an equal volume of 75 mM aqueous phosphoric acid. Samples were then spotted onto a p81 filterplate (Whatman) and a vacuum was applied. Wells were washed 3 times with 200 μL of dilute aqueous phosphoric acid before the addition of 50 μL Microscint 40 per well. Incorporation of radioactivity was determined on a Topcount microplate scintillation counter (Packard).

CDK2/cyclin E = CDK2/cyclin E (Homo sapiens, UniProt P24941); assay: Kinase assay CDK2/cyclin E; conditions: Ki calculated (Cheng-Prusoff) from experimentally determined IC50 and Km,ATP; read-out: Kinase Inhibition Ki CDK2 - cyclin E
Summary of the method: (§1)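 Radiometric assays measured transfer of radioactive phosphate from ATP onto polypeptide substrates, using 2-4 μg recombinant active enzyme in buffer typically containing 25 mM β-glycerophosphate, 20 mM MOPS, 5 mM EGTA, 1 mM DTT and 1 mM Na3VO3 at pH 7.4. Reactions were stopped on ice, filtered on P81 or GF/C plates and washed with orthophosphoric acid. Incorporated radioactivity was scintillation-counted.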

CDK4/cyclin D1 = CDK4/cyclin D1 (Homo sapiens, UniProt P11802); assay: Kinase assay CDK4/cyclin D1; conditions: Ki calculated (Cheng-Prusoff) from experimentally determined IC50 and Km,ATP; read-out: Kinase Inhibition Ki CDK4 - cyclin D1
Sequence of CDK4/cyclin D1 (P11802 whole entry, species assumed): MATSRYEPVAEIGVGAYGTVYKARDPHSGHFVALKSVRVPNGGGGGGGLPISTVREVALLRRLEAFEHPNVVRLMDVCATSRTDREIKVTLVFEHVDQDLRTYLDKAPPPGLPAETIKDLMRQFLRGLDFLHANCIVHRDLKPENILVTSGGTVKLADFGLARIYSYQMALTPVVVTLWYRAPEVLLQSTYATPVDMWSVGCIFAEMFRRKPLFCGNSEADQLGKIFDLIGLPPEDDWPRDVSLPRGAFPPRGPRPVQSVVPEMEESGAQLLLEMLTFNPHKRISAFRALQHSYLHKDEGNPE
Sequence of CDK4/cyclin D1 (P24385 whole entry partner, species assumed): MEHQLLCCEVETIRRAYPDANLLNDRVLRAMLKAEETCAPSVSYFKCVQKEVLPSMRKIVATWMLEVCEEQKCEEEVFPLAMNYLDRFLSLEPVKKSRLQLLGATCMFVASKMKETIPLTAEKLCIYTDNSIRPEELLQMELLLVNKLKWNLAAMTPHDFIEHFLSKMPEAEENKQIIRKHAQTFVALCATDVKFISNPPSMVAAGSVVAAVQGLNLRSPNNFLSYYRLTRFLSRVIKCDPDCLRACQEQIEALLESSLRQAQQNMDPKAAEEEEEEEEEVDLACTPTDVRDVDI
Summary of the method: (§2)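 Radiometric filter assays used recombinant kinases or complexes (2-4 μg) with appropriate polypeptide substrates in pH 7.4 β-glycerophosphate/MOPS buffer. Reactions were started with 15 mM MgCl2 and 100 μM ATP containing [γ-32P]-ATP and run at 30° C. Phosphate incorporated into substrate was counted by scintillation after washing.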

aurora A = target: T2, aurora A (Homo sapiens, UniProt O14965); assay: Kinase assay aurora A; conditions: Ki calculated (Cheng-Prusoff) from experimentally determined IC50 and Km,ATP; read-out: Kinase Inhibition Ki Aurora A
T2 sequence (O14965 1-403): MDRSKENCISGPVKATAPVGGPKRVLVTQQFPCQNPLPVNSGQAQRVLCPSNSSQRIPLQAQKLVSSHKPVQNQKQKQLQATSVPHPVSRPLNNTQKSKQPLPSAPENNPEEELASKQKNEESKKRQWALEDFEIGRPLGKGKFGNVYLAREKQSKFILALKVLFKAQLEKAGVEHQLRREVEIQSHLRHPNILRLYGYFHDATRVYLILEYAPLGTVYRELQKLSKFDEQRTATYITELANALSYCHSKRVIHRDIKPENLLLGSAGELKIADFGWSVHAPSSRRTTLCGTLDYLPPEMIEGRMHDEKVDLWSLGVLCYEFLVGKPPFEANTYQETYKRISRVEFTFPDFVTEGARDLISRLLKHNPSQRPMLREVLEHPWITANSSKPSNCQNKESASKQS
Description: The compounds from the examples above were investigated for their ability to inhibit the enzymatic activity of various protein kinases. This was achieved by measurement of incorporation of radioactive phosphate from ATP into appropriate polypeptide substrates. Recombinant protein kinases and kinase complexes were produced or obtained commercially. Assays were performed using 96-well plates and appropriate assay buffers (typically 25 mM β-glycerophosphate, 20 mM MOPS, 5 mM EGTA, 1 mM DTT, 1 mM […], pH 7.4), into which were added 2-4 μg of active enzyme with appropriate substrates. […] Reactions were stopped on ice, followed by filtration through p81 filterplates or GF/C filterplates (Whatman Polyfiltronics, Kent, UK). After washing 3 times with 75 mM aq orthophosphoric acid, plates were dried, scintillant added and incorporated radioactivity measured in a scintillation counter (TopCount, Packard Instruments, Pangbourne, Berks, UK). Compounds for kinase assay were made up as 10 mM stocks in DMSO and diluted into 10% DMSO in assay buffer.

CDK1/cyclin B = CDK1/cyclin B (Homo sapiens, UniProt P06493); assay: Kinase assay CDK1/cyclin B (radioactive phosphate incorporation); conditions: Ki calculated (Cheng-Prusoff) from experimentally determined IC50 and Km,ATP; read-out: Kinase Inhibition Ki CDK1 - cyclin B
Sequence of CDK1/cyclin B (P06493 whole entry, species assumed): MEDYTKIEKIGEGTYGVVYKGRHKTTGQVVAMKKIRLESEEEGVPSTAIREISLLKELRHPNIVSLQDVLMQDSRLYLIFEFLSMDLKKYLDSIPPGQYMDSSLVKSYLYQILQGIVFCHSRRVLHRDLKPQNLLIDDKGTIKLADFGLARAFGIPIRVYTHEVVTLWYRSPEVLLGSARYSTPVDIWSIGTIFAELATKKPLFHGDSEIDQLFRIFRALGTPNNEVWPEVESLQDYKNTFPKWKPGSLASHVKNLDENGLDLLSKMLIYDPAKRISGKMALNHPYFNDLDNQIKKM
Sequence of CDK1/cyclin B (P14635 whole entry partner, species assumed): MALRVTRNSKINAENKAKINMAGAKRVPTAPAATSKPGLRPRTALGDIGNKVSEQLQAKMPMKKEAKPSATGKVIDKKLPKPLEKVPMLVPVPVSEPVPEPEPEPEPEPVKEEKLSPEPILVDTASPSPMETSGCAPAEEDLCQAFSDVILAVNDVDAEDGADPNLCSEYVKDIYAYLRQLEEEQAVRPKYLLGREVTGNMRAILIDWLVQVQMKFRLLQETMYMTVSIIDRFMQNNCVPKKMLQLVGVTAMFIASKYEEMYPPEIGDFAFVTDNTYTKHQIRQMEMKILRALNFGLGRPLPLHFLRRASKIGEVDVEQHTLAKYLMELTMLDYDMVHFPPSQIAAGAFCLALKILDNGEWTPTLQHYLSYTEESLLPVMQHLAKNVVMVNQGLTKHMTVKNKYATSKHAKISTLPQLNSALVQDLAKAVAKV
Summary of the method: as §1

CDK7/cyclin H = CDK7/cyclin H (Homo sapiens, UniProt P50613); assay: Kinase assay CDK7/cyclin H; conditions: Ki calculated (Cheng-Prusoff) from experimentally determined IC50 and Km,ATP; read-out: Kinase Inhibition Ki CDK7 - cyclin H
Sequence of CDK7/cyclin H (P50613 whole entry, species assumed): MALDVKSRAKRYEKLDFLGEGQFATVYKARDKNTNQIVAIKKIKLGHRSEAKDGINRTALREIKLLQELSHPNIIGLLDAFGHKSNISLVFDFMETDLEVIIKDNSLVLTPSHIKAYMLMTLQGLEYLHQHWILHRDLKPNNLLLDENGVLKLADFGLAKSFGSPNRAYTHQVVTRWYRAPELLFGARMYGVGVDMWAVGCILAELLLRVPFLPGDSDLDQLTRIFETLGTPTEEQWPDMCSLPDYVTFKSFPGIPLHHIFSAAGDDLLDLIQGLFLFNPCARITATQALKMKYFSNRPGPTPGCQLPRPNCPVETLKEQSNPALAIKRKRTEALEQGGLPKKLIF
Sequence of CDK7/cyclin H (P51946 whole entry partner, species assumed): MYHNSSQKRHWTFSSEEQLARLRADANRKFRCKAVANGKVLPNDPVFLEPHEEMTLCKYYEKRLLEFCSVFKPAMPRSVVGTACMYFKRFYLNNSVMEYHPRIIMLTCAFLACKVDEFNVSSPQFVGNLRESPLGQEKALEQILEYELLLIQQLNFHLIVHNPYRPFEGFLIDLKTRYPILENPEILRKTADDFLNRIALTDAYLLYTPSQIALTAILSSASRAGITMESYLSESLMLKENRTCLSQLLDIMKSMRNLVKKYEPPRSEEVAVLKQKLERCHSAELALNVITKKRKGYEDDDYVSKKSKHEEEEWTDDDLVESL
Summary of the method: as §2

CDK9/cyclin T1 = CDK9/cyclin T1 (Homo sapiens, UniProt P50750); assay: Kinase assay CDK9/cyclin T1; conditions: Ki calculated (Cheng-Prusoff) from experimentally determined IC50 and Km,ATP; read-out: Kinase Inhibition Ki CDK9 - cyclin T1
Sequence of CDK9/cyclin T1 (P50750 whole entry, species assumed): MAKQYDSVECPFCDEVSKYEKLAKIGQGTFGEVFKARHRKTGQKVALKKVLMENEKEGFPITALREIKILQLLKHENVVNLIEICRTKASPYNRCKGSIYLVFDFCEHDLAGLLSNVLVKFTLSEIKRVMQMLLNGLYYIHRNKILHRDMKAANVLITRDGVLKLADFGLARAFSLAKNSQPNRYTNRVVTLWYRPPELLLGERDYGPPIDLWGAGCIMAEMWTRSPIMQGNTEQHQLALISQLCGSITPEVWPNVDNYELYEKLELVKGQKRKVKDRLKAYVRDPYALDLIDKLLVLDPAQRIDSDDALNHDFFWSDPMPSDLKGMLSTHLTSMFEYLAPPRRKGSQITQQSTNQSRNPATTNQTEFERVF
Sequence of CDK9/cyclin T1 (O60563 whole entry partner, species assumed): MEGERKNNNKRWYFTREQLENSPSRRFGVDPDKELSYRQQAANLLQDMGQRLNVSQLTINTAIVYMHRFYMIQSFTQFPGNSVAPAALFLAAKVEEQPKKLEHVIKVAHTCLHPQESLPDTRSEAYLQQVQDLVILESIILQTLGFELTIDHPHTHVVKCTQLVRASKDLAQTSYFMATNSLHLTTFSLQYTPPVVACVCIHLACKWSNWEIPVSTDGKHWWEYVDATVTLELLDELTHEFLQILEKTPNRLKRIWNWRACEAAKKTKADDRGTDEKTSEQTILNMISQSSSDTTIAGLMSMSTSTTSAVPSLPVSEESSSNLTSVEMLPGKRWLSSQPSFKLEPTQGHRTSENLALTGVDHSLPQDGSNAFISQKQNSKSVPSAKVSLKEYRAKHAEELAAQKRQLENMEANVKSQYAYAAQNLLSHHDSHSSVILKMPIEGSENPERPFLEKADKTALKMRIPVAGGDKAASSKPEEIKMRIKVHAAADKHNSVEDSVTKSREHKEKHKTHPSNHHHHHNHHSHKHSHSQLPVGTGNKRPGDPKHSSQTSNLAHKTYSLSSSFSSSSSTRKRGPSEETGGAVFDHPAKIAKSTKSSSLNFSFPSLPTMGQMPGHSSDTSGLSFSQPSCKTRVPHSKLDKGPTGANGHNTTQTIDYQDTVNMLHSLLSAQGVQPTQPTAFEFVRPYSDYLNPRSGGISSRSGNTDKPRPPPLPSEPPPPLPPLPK
Summary of the method: as §2

CDK2/cyclin A = CDK2/cyclin A (Homo sapiens, UniProt P24941); assay: Kinase assay CDK2/cyclin A; conditions: Ki calculated (Cheng-Prusoff) from experimentally determined IC50 and Km,ATP; read-out: Kinase Inhibition Ki CDK2 - cyclin A
Summary of the method: as §1

T1 sequence (P49841 whole entry): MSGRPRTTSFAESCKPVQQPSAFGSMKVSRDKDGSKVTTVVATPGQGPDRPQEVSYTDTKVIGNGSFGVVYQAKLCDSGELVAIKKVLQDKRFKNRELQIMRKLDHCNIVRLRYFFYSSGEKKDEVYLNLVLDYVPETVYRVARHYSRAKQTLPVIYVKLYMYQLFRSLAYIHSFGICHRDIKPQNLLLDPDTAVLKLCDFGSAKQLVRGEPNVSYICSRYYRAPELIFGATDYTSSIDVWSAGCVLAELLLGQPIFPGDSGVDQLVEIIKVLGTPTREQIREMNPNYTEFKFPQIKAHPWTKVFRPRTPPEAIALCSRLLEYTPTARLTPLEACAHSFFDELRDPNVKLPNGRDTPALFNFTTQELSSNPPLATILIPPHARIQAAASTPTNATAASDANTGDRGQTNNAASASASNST

Compound | pIC50 (GSK3β) | pKi (CDK2/cyclin E) | pKi (CDK4/cyclin D1) | pKi (aurora A) | pKi (CDK1/cyclin B) | pKi (CDK7/cyclin H) | pKi (CDK9/cyclin T1) | pKi (CDK2/cyclin A)
Cc1c(-c2ccnc(Nc3cccc(CNS(=O)(=O)C(F)(F)F)c3)n2)sc(=O)n1C [Compound 58, N-{3-[4-(3,4-Dimethyl-2-oxo-2,3-dihydro-thiazol-5-yl)-pyrimidin-2-ylamino]-benzyl}-C,C,C-trifluoro-methanesulfonamide] | 7.63 | 7.00 | 5.29 | 6.08 | 5.96 | 7.02 | 8.19 | 6.22
Cc1c(-c2ccnc(Nc3ccc(S(=O)(=O)NCCO)cc3)n2)sc(=O)n1C [Compound 72, 4-[4-(3,4-Dimethyl-2-oxo-2,3-dihydro-thiazol-5-yl)-pyrimidin-2-ylamino]-N-(2-hydroxy-ethyl)-benzenesulfonamide] | 8.08 | 9.30 | 6.08 | 6.29 | 8.27 | 5.92 | 7.96 | 8.54
CCn1c(C)c(-c2ccnc(Nc3ccc(F)cc3)n2)sc1=O [Compound 45, 3-Ethyl-5-[2-(4-fluoro-phenylamino)-pyrimidin-4-yl]-4-methyl-3H-thiazol-2-one] | 7.82 | 7.62 | 5.30 | 7.37 | 6.52 | 6.66 | 7.96 | 7.28
Cc1c(-c2ccnc(Nc3cccc(CNS(C)(=O)=O)c3)n2)sc(=O)n1C [Compound 55, N-{3-[4-(3,4-Dimethyl-2-oxo-2,3-dihydro-thiazol-5-yl)-pyrimidin-2-ylamino]-benzyl}-methane-sulfonamide] | 7.09 | 7.41 | 6.96 | 7.34 | 6.80 | 6.96 | 8.66 | 7.38
CCn1c(C)c(-c2ccnc(Nc3ccc(C)c(O)c3)n2)sc1=O [Compound 47, 3-Ethyl-5-[2-(3-hydroxy-4-methyl-phenylamino)-pyrimidin-4-yl]-4-methyl-3H-thiazol-2-one] | 7.51 | 7.82 | 5.74 | 7.28 | 6.74 | 7.77 | 8.52 | 7.06
Cc1c(-c2ccnc(Nc3cccc(CNC(=O)c4ccccc4)c3)n2)sc(=O)n1C [Compound 57, N-{3-[4-(3,4-Dimethyl-2-oxo-2,3-dihydro-thiazol-5-yl)-pyrimidin-2-ylamino]-benzyl}-benzamide] | 7.75 | 7.28 | 7.68 | 6.80 | 6.44 | 5.89 | 8.80 | 6.27

Other lines, results leading:

pIC50 (GSK3β) | pKi (CDK2/cyclin E) | pKi (CDK4/cyclin D1) | pKi (aurora A) | pKi (CDK1/cyclin B) | pKi (CDK7/cyclin H) | pKi (CDK9/cyclin T1) | pKi (CDK2/cyclin A) | Compound
7.75 | 7.21 | 7.44 | 7.42 | 7.07 | 7.72 | 8.47 | 7.00 | Cc1c(-c2ccnc(Nc3ccc(N4CCNCC4)c(Cl)c3)n2)sc(=O)n1C [Compound 44, 5-[2-(3-Chloro-4-piperazin-1-yl-phenylamino)-pyrimidin-4-yl]-3,4-dimethyl-3H-thiazol-2-one]
7.02 | 6.80 | 7.00 | 7.41 | 5.77 | 7.92 | 7.68 | 6.02 | Cc1c(-c2ccnc(Nc3ccc(N4CCN(Cc5ccccc5)CC4)cc3)n2)sc(=O)n1C [Compound 69, 5-{2-[4-(4-Benzyl-piperazin-1-yl)-phenylamino]-pyrimidin-4-yl}-3,4-dimethyl-3H-thiazol-2-one]
6.42 | 5.89 | 8.01 | 6.96 | 6.03 | 5.96 | 7.52 | 5.52 | CC(=O)N1CCN(c2cccc(Nc3nccc(-c4sc(=O)n(C)c4C)n3)c2)CC1 [Compound 49, 5-{2-[3-(4-Acetyl-piperazin-1-yl)-phenylamino]-pyrimidin-4-yl}-3,4-dimethyl-3H-thiazol-2-one]
